Results: article PMC11063903, “Engineering a human P2X2 receptor with altered ligand selectivity in yeast” (The Journal of Biological Chemistry, 2024)
Where a chain is given by its changes, count along the chain named.

Tests used:
[1] = biological target: T1, WT P2X2 (Homo sapiens, UniProt Q9UBL9); test: Fast GCaMP-mScarletI assay in yeast, WT P2X2; format: cell-based; details: for Bottom, best fit value / Hillslope, best fit value / Top, best fit value: four-parameter logistic fit of ΔF/ΔT
T1 construct: expressed in transfected cells; host or cells: S. cerevisiae BY4741 background, P2X2 genome-integrated under a galactose-inducible promoter
T1 sequence (Q9UBL9 1-471): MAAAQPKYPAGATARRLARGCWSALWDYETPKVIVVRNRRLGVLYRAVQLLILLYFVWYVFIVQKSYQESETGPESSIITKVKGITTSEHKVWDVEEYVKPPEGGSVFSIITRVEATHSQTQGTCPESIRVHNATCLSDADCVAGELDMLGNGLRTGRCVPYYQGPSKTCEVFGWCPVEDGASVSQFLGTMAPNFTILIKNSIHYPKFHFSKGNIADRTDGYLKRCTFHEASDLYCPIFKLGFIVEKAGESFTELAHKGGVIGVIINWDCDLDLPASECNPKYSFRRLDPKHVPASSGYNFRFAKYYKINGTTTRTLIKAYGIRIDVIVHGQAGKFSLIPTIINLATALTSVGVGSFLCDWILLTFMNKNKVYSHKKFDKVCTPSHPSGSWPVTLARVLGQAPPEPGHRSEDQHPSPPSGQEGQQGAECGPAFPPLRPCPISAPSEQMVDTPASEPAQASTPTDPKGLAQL
Protocol: Figure 4 Unnatural-ligand gating in LBD libraries.A, WT P2X2 was tested with 1 mM ATP, 500 μM AMP-PNP, and compared to ATP with the broken receptor (K81C K83C) control with 1 mM ATP in the fast GCaMP-mScarletI assay (n = 3). […] B, heat map summarizing AMP-PNP signaling (ΔF/ΔT, fast GCaMP-mScarletI assay) in the site-saturation libraries (n = 2–3). All values are normalized to WT P2X2 with saturating amounts of AMP-PNP (500 μM) and therefore represent low signal (ΔF/ΔT) compared to the ATP ligand. C, F301W, F303Y, and A304W were combinatorially combined and tested against the WT, K81C K83C broken P2X2, and the single mutant clones with both ATP (1 mM, black) and AMP-PNP (500 μM, pink). […] Values here represent signal onset and are not normalized to a positive control (n = 2–5). D–K, dose response of each P2X variant with both ATP (black) and AMP-PNP (pink) in the fast GCaMP-mScarletI assay (n = 3). Statistics were performed via one-way ANOVA with Dunnett’s multiple comparisons with to the “broken” K81C K83C negative control. ∗ represents a p value ≤0.05, ∗∗ is p ≤ 0.01, and ∗∗∗ is p ≤ 0.001.
Given that the yeast-based screen seemed to recapitulate important structural and functional features of human ion channel function, we hypothesized that it might be possible to engineer new P2X2 functionalities in yeast, including new ligand specificity. […] We screened our 133-member library in the presence of 500 μM AMP-PNP (Fig. S7). While the AMP-PNP signal was uniformly low, three substitutions (F301W, F303Y, and A304W) increased signaling 2.5 to 2.8 times relative to the negative control receptor (Figs. 4B, and S7, D, F, and G). To gain a more complete view of the properties of these mutants, dose–response curves were generated with ATP and AMP-PNP (Fig. 4, D–G, and Table S2).
GCaMP assays were performed as follows. P2X2 GCaMP strains were designed with a bi-cistronic reporter, in which the GCaMP protein was followed by a 2A peptide and a mScarletI reporter ([53]). The co-translated mScarletI was designed to act as a control for plasmid loss, GCaMP breakage via nonsense mutation, and contamination. […] P2X2-GCaMP strains were cultured and induced as previously described. Samples were induced for 24 h to allow for the accumulation of the mature GCaMP protein. Cells were washed three times in 0.1 M MES/Tris buffer and resuspended with MES/Tris with supplemental calcium. Cells were loaded onto a black, clear bottom microplate and imaged on a FlexStation3 plate reader. Samples were imaged in “flex” mode. Samples were imaged for 48 s at an interval of 1.6 s. Fluorescence was measured with an excitation at 485 nm, and emission 525 nm. At the 21 s mark, 100 μl ligand solution was transferred to the cells. For strains with mScarlet, fluorescence was read with excitation 570 nm/emission 610 nm. Slopes were calculated from the last 6 points of measurement and were normalized to the positive control samples. Any replicate in which the mScarlet value was measured to be over 2 standard deviations less than the mean for that set was discarded from further analysis.
For multiple comparisons in the site-saturation screening data, One-way ANOVA with Dunnett’s multiple comparisons test was performed where every sample was compared to the “broken” negative control. Significance was plotted where ∗ represents a p value ≤0.05, ∗∗ is p ≤0.01, and ∗∗∗ is p ≤0.001. Dose–response curves were fit with nonlinear regression software using a four-parameter logistic curve. All statistics were calculated and plotted in Graphpad Prism software.

[2] = biological target: T2, P2X2 A304W (Homo sapiens, UniProt Q9UBL9, A304W); test: 15-min kinetic GCaMP-mScarletI assay in yeast, P2X2 A304W; format: cell-based; details: 1 mM ATP or 5 mM AMP-PNP, 15-min bath incubation, n = 3
T2 construct: expressed in transfected cells; host or cells: S. cerevisiae BY4741 background
T2 sequence (Q9UBL9 1-471 A304W): T1 sequence (Q9UBL9 1-471) with A304W
Protocol: To more fully characterize the selected and engineered P2X2 variants, kinetic assays were performed over a longer period (15 min) that provided a more complete view of receptor gating (Fig. 5, A–H).
Figure 5 Kinetic analysis of P2X variants.A–H, P2X2 variants in GCaMP-mScarletI yeast were injected with 1 mM ATP (black) or 5 mM AMP-PNP (pink) and fluorescence was monitored over a 15-min time course of bath incubation. Error bars represent standard deviation of the mean (n = 3).
The A304W mutation therefore appears to either favor the open conformation of the receptor and/or to have slow rates of pore closure.

| signal of wildtype P2X2 receptor ([1]; 500 μM AMP-PNP, Fig. 4A) | Compound | Bottom, best fit value ([1]; n = 3) | Hillslope, best fit value ([1]; n = 3) | Top, best fit value ([1]; n = 3) | signal decay over the time course [2] | EC50 ([1]; four-parameter logistic fit, n = 3, unit inferred, unit M, read-out: EC50, best fit value) |
| --- | --- | --- | --- | --- | --- | --- |
| nearly undetectable signal | Nc1ncnc2c1ncn2[C@@H]1O[C@H](COP(=O)(O)OP(=O)(O)NP(=O)(O)O)[C@@H](O)[C@H]1O [AMP-PNP] | 0.429 | -1 | 1.129 | a small amount of signal decay | – |
| – | Nc1ncnc2c1ncn2[C@@H]1O[C@H](COP(=O)(O)OP(=O)(O)OP(=O)(O)O)[C@@H](O)[C@H]1O [ATP] | 1.37 | 2.27 | 70.62 | no sign of decay | 5.75 µM |
